Where “and” joins values, the source holds several entries; their conditions need not be identical. Equal entries are not always repeated. Where two headings read alike, the source gives them in different places.
What was measured:
[1] = system: isolated guinea-pig atria; conditions: papaverine with verapamil; cited from earlier work
calcium ion flows = conditions: cited from earlier work
phosphodiesterases = conditions: cited from earlier work
phosphodiesterase = experiment: Inhibition of the phosphodiesterase activity (method of K. G. Nair); type: biochemical; conditions: read-out: ID50 (inhibiting dose 50%); up to 10 mM
Procedure: The inhibition of phosphodiesterase activity of YS 035 and of papaverine has been assessed according to the method of K. G. Nair (Biochemistry, 5, 150, 1966).
It has been used a medium containing:
2.5 ml of buffer tris-HCl 0.1M pH 7.4;
50 μl CAMP "Sigma" (1 mg/ml);
5 μl Adenosin deaminase (2 mg/ml);
20 μl of alkaline phosphatase "Sigma" (2.6 mg/ml);
15 μl of phosphodiesterase (10 mg/ml).
YS 035 has been added up to a final concentration of 100 mM and Papaverine to a concentration of 10 mM.

[2] = system: synaptosomes of the brain of rats; experiment: Inhibition of the Ca2+-uptake in synaptosomes of the brain of rats; type: biochemical, rat; conditions: 250 μM
Procedure: The synaptosomes have been prepared from an homogenate of the brain of rats by centrifugation in the gradient of Filcoll at 23,500 rpm for a period of 30 minutes and diluted to 1.5 mg/cc in the medium constituted by:
After 15 minutes of preincubation, ^45 CaCl2, final concentration 1 mM (0.2μCi/cc is added to the medium).
The first determination has been carried out two minutes after the addition. […] After each period, the reaction has been stopped by centrifugation and the radioactivity has been determined in the supernatant as well as in the pellet. The latter had been denatured previously with PCA, neutralized and subsequently centrifuged.

portions of the aorta = experiment: Contraction of aorta portions by arachidonic acid after oral administration to rabbits (studies in vivo); design: species or system rabbit
Procedure: Both substances YS 035 and Nicardipine have been administered orally for a period of three consecutive days to rabbits in such a manner that the last administration of each substance was carried out one hour prior to killing the animals. The portions of the aorta had then been incubated either in PRP as well as in the Krebs-Henseleit liquid.

aorta of rabbits = experiment: Antagonistic activity on the contractions produced by arachidonic acid on the aorta of rabbits, study in vitro; design: species or system rabbit; conditions: for inhibition at 1 mg/kg: dose 1.0 mg·Kg^-1
Procedure: The study has been carried out by comparison with Nicardipine using autologous blood as the perfusion liquid. The addition of 0.1 mg of arachidonate to the liquid induces an isometric contraction of the aorta which is registered by a transducer. […] This phenomenon is shown by the relaxation which follows the addition of arachidonate to the perfusion blood. This effect may be noted with 0.1 mg/kg of YS 035 and 1 mg/kg of Nicardipine.

rats = experiment: Antagonistic effect to biochemical disturbances during the post-oligemic period in rats; type: in vivo, rat
Procedure: Oligemia in rats is caused by simultaneous bilateral occlusion of the carotid arteries associated with a slight decrease (8-9 kPa) of blood pressure and is maintained for 60 minutes. After removal of the occlusion, the post-oligemic period is followed for several days. In this case, the observation is continued up to the third day, at the time during which the brain accumulation of Ca^++ ions reaches the maximum.
The substances YS 035 or Nicardipine respectively, are administered to rats, 1, 5, 18, 24, 42 and 71 hours after having removed the carotid occlusion. The rats are sacrificed after 72 hours and the tissues are rapidly removed in order to determine their content of water, calcium and potassium.

[3] = system: mitochondria of liver of rats; experiment: Inhibition of Ca2+-uptake in mitochondria of liver of rats; type: biochemical, rat; conditions: 250 μM; 20° C.; control 14.3
Procedure: The mitochondria prepared according to classical methods are diluted to a concentration of 1.5 mg/cc in a medium of incubation which has the following composition:
After a period of 15 minutes of preincubation at 20° C. there was added ^45 CaCl2 (50 n mol/mg prot.).
In a manner analogous to the preceding experiments, the concentrations determined after two minutes were called the concentration at 0 period of time. The other controls were determined after 5 minutes, after 10 minutes and after 15 minutes. For the determination of Ca^2+, the experiment was carried out in a manner analogous to the preceding experiments.
The results are reported in Table 3 as the quantity of Ca transferred per mg of protein

[4] = system: kidney cells in newborn hamsters; experiment: Inhibition of Ca2+-uptake in kidney cells in newborn hamsters; type: cell-based, hamster
Procedure: Cells of kidneys of newborn hamsters have been washed and then resuspended several times in concentration of 5·10^6 /cc in the medium of the following composition:
After 15 minutes of preincubation at 30° C., the reaction was made to begin by addition to the medium of ^45 CaCl2 1 mM (0.1μCi/cc). The concentrations at 0 period of time were the concentrations determined two minutes after the addition. The other controls were carried out after 5 minutes, 10 minutes, and 20 minutes. The determination of [Ca^2+ ] was carried out as in the preceding experiment.

COc1ccc(CCN(C)CCCC(C#N)(c2ccc(OC)c(OC)c2)C(C)C)cc1OC (centres unmarked) [verapamil]
interaction on the slow entry flows sustained by calcium ions (in words) [1]: mutually antagonistic

COc1ccc(Cc2nccc3cc(OC)c(OC)cc23)cc1OC [Papaverine]
effect on calcium ion flows (in words) (calcium ion flows; at the lower concentrations): stimulation of calcium ion flows
concentration of antagonism on the calcium ion (calcium ion flows): about 10^-4 M
calcium antagonistic activity (in words) (calcium ion flows; conclusion from literature): totally devoid of calcium antagonistic activity
interaction on the slow entry flows sustained by calcium ions (in words) [1]: mutually antagonistic
main biochemical action (in words) (phosphodiesterases): inhibition of phosphodiesterases
IC50 (phosphodiesterase): 40 µM
inhibitory activity on the calcium uptake (in words) [2]: completely devoid of calcium antagonistic activity
Ca2+-uptake ([2]; 45CaCl2 1 mM, control 80 ± 7): 79 ± 5 n g ions/mg prot/15 min

COC(=O)C1=C(C)NC(C)=C(C(=O)OCCN(C)Cc2ccccc2)C1c1cccc([N+](=O)[O-])c1 (centres unmarked) [Nicardipine, reference compound]
Amplitude of contraction, medium Krebs, individual values (portions of the aorta; 1 mg·Kg^-1 P.O., Krebs, controls 12 ± 2.3): -30 mm and -10 mm
Amplitude of contraction, PRP, individual values (portions of the aorta; 1 mg·Kg^-1 P.O., PRP, controls 30 ± 8.0): +24 mm and +55 mm
site of action (in words) (portions of the aorta; aortic endothelial level, particularly PGI2): act directly on the synthesis of prostaglandin
Contraction of the first portion of the aorta (aorta of rabbits; N = 4): 38 ± 4.9 mm
inhibition at 0.01 mg/kg (aorta of rabbits; Oryctolagus cuniculus, dose 0.01 mg·Kg^-1, read-out: Contraction of the second and third portion of the aorta, % Variation): 6%
inhibition at 0.1 mg/kg (aorta of rabbits; Oryctolagus cuniculus, dose 0.1 mg·Kg^-1, read-out: Contraction of the second and third portion of the aorta, % Variation): 48 ± 15.5%
inhibition at 1 mg/kg (aorta of rabbits; Oryctolagus cuniculus, read-out: Contraction of the second and third portion of the aorta, % Variation): 162%
inhibition at 1 mg/kg (aorta of rabbits; Oryctolagus cuniculus, second and third portion, read-out: % Variation, small contractions observed occasionally prior to relaxation (value in brackets)): 84%
minimal effective dose (aorta of rabbits; Oryctolagus cuniculus, autologous blood perfusion, 0.1 mg arachidonate, read-out: dose at which relaxation following the addition of arachidonate is noted): 1 mg/kg
inhibitory effect on the contraction produced by the arachidonate (in words) (aorta of rabbits; YS 035 compared with Nicardipine): comparable
Cerebral concentration, Ca++ (rats; 3 mg·Kg^-1 P.O. 7×, 72 h, post-oligemic controls 28.2 ± 3.22): 19.3 ± 4.92 mmol·Kg^-1 of dry substance
Cerebral concentration, H2O (rats; 3 mg·Kg^-1 P.O. 7×, 72 h, post-oligemic controls 80.1 ± 0.37): 79.2 ± 0.42%
Cerebral concentration, K+ (rats; 3 mg·Kg^-1 P.O. 7×, 72 h, post-oligemic controls 366.2 ± 12.58): 368.5 ± 19.69 mmol·Kg^-1 of dry substance
intracellular accumulation of Ca++ ions (in words) (rats; rat, in vivo): much less significant

COC(=O)C1=C(C)NC(C)=C(C(=O)OC)C1c1ccccc1[N+](=O)[O-] [Nifedipine, reference compound]
Ca2+-uptake [3]: 9.5 n g ions/mg prot.
Ca2+-uptake ([4]; 250 μM, 30° C., control 11.9): 7.9 n g ions/mg prot/15'
percent change in Ca2+-uptake versus control at 250 µM ([4]; Mesocricetus auratus, 0.25 h, 15 min): -33.6%

From US4956389A, “Compounds having calcium blocking activity” (priority 1982, dated 1990)
